Data reported in US20130310452A1, “ANTIFUNGAL FLAVOURING INGREDIENTS AND COMPOSITIONS” (FIRMENICH SA, priority 2011, published 2013).

System: main fungi responsible for beverage and food spoilage (yeast and mould strains)
Experiment: Growth inhibition of yeast and mould strains in 105 g/L sucrose solution (OD after 21 days)
Type: cell-based
Protocol: The antifungal activity of various flavouring ingredients was evaluated against the following yeast strains: Zygosaccharomyces rouxii (DSM70835), Pichia membranaefaciens (DSM 70369), Dekkera Bruxellensis (DSM70726), Saccharomyces cerevisiae (DSM 70869) and Candida krusei (origin: Leatherhead Food Research) and against the following moulds strains: Byssochlamys nivea, Fusarium solani, Aspergillus fumigatis, Byssochlamys fulva, Aspergillus niger, Talaromyces Harzanium, Penicillium crustosum, Penicillium digitatum, Neosartorya fischeri, Penicillium roquerforti, Fusarium oxysporum.
A 105 g/L solution of sucrose in water at pH 3±0.2 was prepared. Another sucrose solution at the same concentration at pH 5±0.2 was also prepared. The sucrose solutions were autoclaved at 121° C. for 15 minutes and the pH was re-checked to ensure it remained within the range.
Test samples were then prepared in microtiter plates. An amount of 100 μL of sucrose solution prepared above, were mixed with an inoculum of 20 μL of one fungal strain, so as to achieve a microbial level comprised between 10^2 and 10^3 cfu/mL.
The flavouring ingredient or composition was then added to the microtiter plate. Dilutions were prepared in the microtiter plate for each mixture of sucrose solution and inoculum to afford final concentrations of 2000 ppm, 1000 ppm, 500 ppm, 250 ppm and 125 ppm of the ingredient or composition to be tested. One well for each mixture of sucrose solution and inoculum was kept free of flavouring ingredient or composition, to serve as a control.
The microtiter plates were then stored in a standard 25° C. incubator under aerobic conditions.
The optical density (OD) of each sample was measured after 21 days of incubation using a Bio-Tek Synergy™ HT Multi-Mode Microplate Reader (from Labtech International, UK). The wavelength was set to 380 nm for yeast strains and to 500 nm for mould strains. All tests were done in triplicate to ensure statistical relevance of the results.
The following tables indicate the OD measurements obtained when each flavouring ingredient or composition was used to inhibit growth of yeast and mould strains involved at concentration ranging between 0 and 2000 ppm. Measurements corresponding to efficient growth inhibition are indicated by grey cells in the tables below. Results were considered as evidence of efficient growth inhibition when the OD of the growth medium was below 0.2. OD measurements below 0.2 were not considered as sufficient evidence of the antifungal activity of a given flavouring ingredient or composition at a given concentration if OD measurements obtained with a higher concentration of such flavouring ingredient or composition were above 0.2.

[1] = sucrose solution at pH 3, concentrations of 1000 ppm or less, OD below 0.2 after 21 days at 25° C., 16 strains tested
[2] = sucrose solution at pH 5, concentrations of 1000 ppm or less, OD below 0.2 after 21 days at 25° C., 16 strains tested

Structure (SMILES)	number of the main fungi responsible for beverage and food spoilage against which there is a strong antifungal effect [1]	number of the main fungi responsible for beverage and food spoilage against which there is a strong antifungal effect [2]	number of the main fungi responsible for beverage and food spoilage against which there is a strong antifungal effect (pH 3)	number of the main fungi responsible for beverage and food spoilage against which there is a strong antifungal effect (pH 5)
CCCCC(C)C(=O)O (stereo not drawn) [2-methylhexanoic acid]	15	16	–	–
CCCCCc1ccco1 [2-pentylfuran]	3	2	–	–
CC(C)CC=C(C=O)c1ccccc1 [5-methyl-2-phenyl-2-hexenal]	–	–	9	5
CC(=O)C=CCCC(C)C [7-methyl-3-octen-2-one]	6	11	–	–
C[C@@H]1CC[C@H]2[C@H](C)C(=O)O[C@@H]2C1 [(+)-(3S,3AS,6R,7AR)-perhydro-3,6-dimethyl-benzo[B]furan-2-one]	3	2	–	–
Cc1ccc(C(C)C)cc1O [carvacrol]	15	14	–	–
CCCc1ccc(O)c(OC)c1 [dihydro eugenol]	15	15	–	–
CC(C)=CCCC(C)=CCCC(C)=CCO [farnesol]	2	–	–	–
COc1cc(C)cc(O)c1 [orcinyle, 3-methoxy-5-methylphenol]	2	–	–	–
O=C(O)c1ccccc1O [salicylic acid]	12	14	–	–
CC1=CCC(=C(C)C)CC1 [terpinolene]	15	7	–	–
Cc1ccc(C(C)C)c(O)c1 [thymol]	4	–	–	–
